Results reported in ChEMBL document CHEMBL4376868, “Structure-Activity Relationship Study of Novel 6-Aryl-2-benzoyl-pyridines as Tubulin Polymerization Inhibitors with Potent Antiproliferative Properties” (J Med Chem, 2020).
Calls of active or inactive are those of the source. The rule behind the calls is not given here.

What was measured:
[1] = Antiproliferative activity against human DU145-TxR cells measured after 72 hrs by MTS assay; format: functional, cell-based
DU-145 = test: Antiproliferative activity against human DU145 cells measured after 72 hrs by MTS assay; format: functional, cell-based; conditions: DU-145, 72 h
[2] = Antiproliferative activity against human PC3/TxR cells measured after 72 hrs by MTS assay; format: functional, cell-based
M14 = test: Antiproliferative activity against human M14 cells measured after 72 hrs by MTS assay; format: functional, cell-based; conditions: M14, 72 h
PC-3 = test: Antiproliferative activity against human PC3 cells measured after 72 hrs by MTS assay; format: functional, cell-based; conditions: PC-3, 72 h
[3] = Antiproliferative activity against human M14/LCC6MDR1 cells measured after 72 hrs by MTS assay; format: functional, cell-based
A-375 [4] = test: Antiproliferative activity against human A375 cells measured after 72 hrs by MTS assay; format: functional, cell-based; conditions: A-375, 72 h
MDA-MB-453 = test: Antiproliferative activity against human MDA-MB-453 cells measured after 72 hrs by MTS assay; format: functional, cell-based; conditions: MDA-MB-453, 72 h
Tubulin (Sus scrofa) [5] = target: T1, Tubulin (Sus scrofa) (UniProt P02554+P02550); test: Inhibition of porcine brain tubulin polymerization at 10 uM measured at 30 secs interval for 65 mins by spectrophotometric method
T1 sequence (P02550 whole entry, looked up): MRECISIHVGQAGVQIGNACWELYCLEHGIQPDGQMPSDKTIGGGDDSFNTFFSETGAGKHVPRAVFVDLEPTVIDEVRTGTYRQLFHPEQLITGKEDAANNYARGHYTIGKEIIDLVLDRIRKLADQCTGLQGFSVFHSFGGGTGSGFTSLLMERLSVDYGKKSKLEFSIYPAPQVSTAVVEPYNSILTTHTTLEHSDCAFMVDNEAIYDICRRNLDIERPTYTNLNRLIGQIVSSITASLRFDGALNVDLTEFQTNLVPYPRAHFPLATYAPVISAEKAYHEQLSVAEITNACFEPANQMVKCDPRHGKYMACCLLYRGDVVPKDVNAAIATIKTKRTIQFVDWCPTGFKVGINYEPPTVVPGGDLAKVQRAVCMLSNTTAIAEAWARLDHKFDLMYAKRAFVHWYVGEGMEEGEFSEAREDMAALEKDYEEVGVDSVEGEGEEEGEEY
T1 sequence (P02554 whole entry, looked up): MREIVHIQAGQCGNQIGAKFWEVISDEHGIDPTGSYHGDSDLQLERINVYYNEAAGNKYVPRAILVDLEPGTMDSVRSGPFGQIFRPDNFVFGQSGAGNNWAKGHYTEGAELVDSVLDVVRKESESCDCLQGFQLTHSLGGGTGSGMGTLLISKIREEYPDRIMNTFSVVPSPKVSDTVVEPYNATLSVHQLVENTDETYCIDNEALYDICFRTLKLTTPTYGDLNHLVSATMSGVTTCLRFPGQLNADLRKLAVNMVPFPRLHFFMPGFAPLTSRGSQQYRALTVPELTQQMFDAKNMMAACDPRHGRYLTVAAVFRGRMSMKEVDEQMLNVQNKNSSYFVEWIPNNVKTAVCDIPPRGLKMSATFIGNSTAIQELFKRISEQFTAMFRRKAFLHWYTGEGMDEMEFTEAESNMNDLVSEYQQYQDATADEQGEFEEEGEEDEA

SK-BR-3 = test: Antiproliferative activity against human SK-BR-3 cells measured after 72 hrs by MTS assay; format: functional, cell-based; conditions: SK-BR-3, 72 h
MDA-MB-231 = test: Antiproliferative activity against human MDA-MB-231 cells measured after 72 hrs by MTS assay; format: functional, cell-based; conditions: MDA-MB-231, 72 h
RPMI-7951 = test: Antiproliferative activity against human RPMI7951 cells measured after 72 hrs by MTS assay; format: functional, cell-based; conditions: RPMI-7951, 72 h
A-375 [6] = test: Antitumor activity against human A375 cells xenografted in NSG mouse assessed as reduction in tumor size at 10 to 20 mg/kg, ip administered 5 times per week for 14 days by digital caliper method; format: functional, organism-based
[7] = Toxicity in human A375 cells xenografted NSG mouse assessed as decrease in body weight loss at 10 to 20 mg/kg, ip administered 5 times per week for 14 days measured 3 times a week during compound dosing; format: organism-based; conditions: in vivo, 336 h
A-375 [8] = test: Antitumor activity against human A375 cells xenografted in NSG mouse assessed as disruption of tumor vasculature development by measuring decrease in CD31 staining at 10 to 20 mg/kg, ip administered 5 times per week for 14 days measured post-last dose by immunohistochemical analysis; format: functional, organism-based
A-375 [9] = test: Antitumor activity against human A375 cells xenografted in NSG mouse assessed as tumor necrosis at 10 to 20 mg/kg, ip administered 5 times per week for 14 days measured post-last dose by H and E staining-based microscopic analysis; format: functional, organism-based
A-375 [10] = test: Antitumor activity against human A375 cells xenografted in ip dosed NSG mouse assessed as tumor growth inhibition administered 5 times per week for 14 days; format: functional, organism-based
Tubulin [11] = target: T2, Tubulin (Sus scrofa, UniProt P02554+P02550); test: (§1) Binding affinity to porcine brain tubulin polymerization by surface plasmon analysis analysis
Tubulin (Sus scrofa) [12] = target: T1, Tubulin (Sus scrofa); test: as §1
A-375 [13] = test: Antitumor activity against human A375 cells xenografted in NSG mouse assessed as reduction in tumor weight at 20 mg/kg, ip administered 5 times per week for 14 days relative to control; format: functional; design: scale not given: the % may be the effect or the level left
A-375 [14] = test: Antitumor activity against human A375 cells xenografted in NSG mouse assessed as increase in cleaved PARP level at 10 to 20 mg/kg, ip administered 5 times per week for 14 days measured post-last dose by immunohistochemical analysis; format: functional, organism-based
A-375 [15] = test: Antitumor activity against human A375 cells xenografted in NSG mouse assessed as reduction in tumor volume at 20 mg/kg, ip administered 5 times per week for 14 days relative to control; format: functional; design: scale not given: the % may be the effect or the level left
A-375 [16] = test: Antitumor activity against human A375 cells xenografted in NSG mouse assessed as reduction in tumor volume at 10 mg/kg, ip administered 5 times per week for 14 days relative to control; format: functional; design: scale not given: the % may be the effect or the level left
[17] = Resistance index, ratio of IC50 for antiproliferative activity against human M14/LCC6MDR1 cells to IC50 for antiproliferative activity against human M14 cells; format: functional
A-375 [18] = test: Antitumor activity against human A375 cells xenografted in ip dosed NSG mouse assessed as suppression of tumor growth by measuring decrease in number Ki67 positive cells administered 5 times per week for 14 days measured post-last dose by immunohistochemical analysis; format: functional, organism-based
Tubulin [19] = target: T2, Tubulin; test: (§2) Inhibition of porcine brain tubulin polymerization measured at 30 secs interval for 65 mins by spectrophotometric method
Tubulin (Sus scrofa) [20] = target: T1, Tubulin (Sus scrofa); test: as §2
[21] = Resistance index, ratio of IC50 for antiproliferative activity against human PC3/TxR cells to IC50 for antiproliferative activity against human PC3 cells; format: functional
A-375 [22] = test: Antitumor activity against human A375 cells xenografted in NSG mouse assessed as reduction in tumor weight at 10 mg/kg, ip administered 5 times per week for 14 days relative to control; format: functional; design: scale not given: the % may be the effect or the level left
[23] = Resistance index, ratio of IC50 for antiproliferative activity against human DU145-TxR cells to IC50 for antiproliferative activity against human DU145 cells; format: functional

Row | IC50 (PC-3) | IC50 (A-375 [4]) | IC50 (MDA-MB-453) | inhibition (Tubulin (Sus scrofa) [5]) | IC50 (SK-BR-3) | IC50 (MDA-MB-231) | Structure (SMILES) | IC50 [1] | IC50 (DU-145) | IC50 [2] | IC50 (M14) | IC50 [3] | IC50 (RPMI-7951) | also measured
1 | 1.9 nM |  |  |  |  |  | CC(=O)O[C@H]1C(=O)[C@@]2(C)[C@H]([C@H](OC(=O)c3ccccc3)[C@]3(O)C[C@H](OC(=O)[C@H](O)[C@@H](NC(=O)c4ccccc4)c4ccccc4)C(C)=C1C3(C)C)[C@]1(OC(C)=O)CO[C@@H]1C[C@@H]2O [PACLITAXEL] | > 1000 nM |  | 148 nM |  | 200 nM |  | 
2 |  | 5.9 nM | 5 nM | Active | 4.8 nM | 4.9 nM | COc1cc(C(=O)c2cccc(-c3ccc(C)cc3)n2)cc(OC)c1OC |  |  |  | 4.9 nM |  | 7.2 nM | 
3 | 1.7 nM | 1.5 nM | 1.2 nM | Active | 2.8 nM | 1.7 nM | COc1cc(C(=O)c2cccc(-c3ccc(C)c(O)c3)n2)cc(OC)c1OC | 2.8 nM | 3.7 nM | 2.5 nM | 0.9 to 1.7 nM | 1.4 nM | 1.7 nM | Activity (A-375 [6]): Active; Activity [7]: Non-Toxic; Activity (A-375 [8]): Active; Activity (A-375 [9]): Active; TGI (A-375 [10]): Dose-dependent effect; Kd (Tubulin [11]): 2660 nM; Activity (Tubulin (Sus scrofa) [12]): Dose-dependent effect; Activity (A-375 [13]): 83.33%; Activity (A-375 [14]): Active; Activity (A-375 [15]): 88.5%; Activity (A-375 [16]): 58.54%; Ratio IC50 [17]: 1.5; Activity (A-375 [18]): Dose-dependent effect; IC50 (Tubulin [19]): 5000 to 10000 nM; inhibition (Tubulin (Sus scrofa) [20]): Dose-dependent effect; Ratio IC50 [21]: 1.5; Activity (A-375 [22]): 48.81%; Ratio IC50 [23]: 0.8

Row | Structure (SMILES) | IC50 (PC-3) | IC50 (A-375 [4]) | IC50 (MDA-MB-453) | inhibition (Tubulin (Sus scrofa) [5]) | IC50 (SK-BR-3) | IC50 (MDA-MB-231) | IC50 [1] | IC50 (DU-145) | IC50 [2] | IC50 (M14) | IC50 [3] | IC50 (RPMI-7951) | also measured
4 | COc1cc2c(c(OC)c1OC)-c1ccc(OC)c(=O)cc1[C@@H](NC(C)=O)CC2 [COLCHICINE] | 19 nM |  |  |  |  |  | > 1000 nM | 17.3 nM | 56.3 nM | 9.3 nM | 1400 nM |  | 
